Assay results published in patent US4061861A, “7-[α-(2,3-DIHYDRO-2-OXO-1H-benzimidazol-1-ylcarbonyl-amino) arylacetamido]cephalosporins” (Eli Lilly and Company, priority 1976, dated 1977).
In brackets after ≈: the same amount, converted by molar mass.

Legend:
Format in all cases: cell-based
[1] = system: X400; assay: MIC by gradient plate in vitro method, X400 (methicillin resistant Staphylococcus); conditions: read-out: Minimum Inhibitory Concentration
Source text: (§1) The antibiotic activity of the cephalosporin compounds of this invention is illustrated by the data provided in the following Table of representative compounds. The values in the Table are the minimum inhibitory concentrations (MIC) for the test compounds against the indicated microorganisms. The MIC values were obtained using the gradient plate in vitro method for determining antibiotic activity.
(§2) Staphylococcus. X-400 is a methicillin resistant Staphylococcus.

[2] = system: Aerobacter aerogenes; assay: MIC by gradient plate in vitro method, Aerobacter aerogenes; conditions: Klebsiella aerogenes, read-out: Minimum Inhibitory Concentration
Source text: as §1

[3] = system: V32; assay: MIC by gradient plate in vitro method, V32 (penicillin resistant Staphylococcus); conditions: read-out: Minimum Inhibitory Concentration
Source text: as §1
(§3) ^1 Test organisms V41, V32, and V84 are penicillin resistant
as §2

[4] = system: Shigella sp.; assay: MIC by gradient plate in vitro method, Shigella sp.; conditions: read-out: Minimum Inhibitory Concentration
Source text: as §1

[5] = system: V84; assay: MIC by gradient plate in vitro method, V84 (penicillin resistant Staphylococcus); conditions: read-out: Minimum Inhibitory Concentration
Source text: as §1, §3, §2

[6] = system: Salmonella heidelberg; assay: MIC by gradient plate in vitro method, Salmonella heidelberg; conditions: Salmonella enterica, read-out: Minimum Inhibitory Concentration
Source text: as §1

[7] = system: Serratia marcescens; assay: MIC by gradient plate in vitro method, Serratia marcescens; conditions: read-out: Minimum Inhibitory Concentration
Source text: as §1

[8] = system: Escherichia coli; assay: MIC by gradient plate in vitro method, Escherichia coli; conditions: read-out: Minimum Inhibitory Concentration
Source text: as §1

[9] = system: V41; assay: MIC by gradient plate in vitro method, V41 (penicillin resistant Staphylococcus); conditions: read-out: Minimum Inhibitory Concentration
Source text: as §1, §3, §2

[10] = system: Klebsiella pneumoniae; assay: MIC by gradient plate in vitro method, Klebsiella pneumoniae; conditions: read-out: Minimum Inhibitory Concentration
Source text: as §1

[11] = system: Pseudomonas aeruginosa; assay: MIC by gradient plate in vitro method, Pseudomonas aeruginosa; conditions: read-out: Minimum Inhibitory Concentration
Source text: as §1

Row | Compound | MIC [1] [µg/mL] | MIC [2] [µg/mL] | MIC [3] [µg/mL] | MIC [4] [µg/mL] | MIC [5] [µg/mL] | MIC [6] [µg/mL] | MIC [7] [µg/mL] | MIC [8] [µg/mL] | MIC [9] [µg/mL] | MIC [10] [µg/mL] | MIC [11] [µg/mL]
1 | CC(=O)OCC1=C(C(=O)O)N2C(=O)C(NC(=O)C(NC(=O)n3c(=O)[nH]c4ccccc43)c3ccccc3)[C@H]2SC1 (stereo partly drawn) [Test Compound A, 7-[α-(2,3-Dihydro-2-oxo-1H-benzimidazol-1-ylcarbonylamino)phenylacetamido]-3-acetoxymethyl-3-cephem-4-carboxylic acid] | > 20 | 140 (≈ 248 µM) | 11 (≈ 19.4 µM) | 100 (≈ 177 µM) | 8 (≈ 14.1 µM) | 120 (≈ 212 µM) | > 200 | 140 (≈ 248 µM) | 8 (≈ 14.1 µM) | 90 (≈ 159 µM) | 16 (≈ 28.3 µM)
2 | Cn1nnnc1SCC1=C(C(=O)O)N2C(=O)C(NC(=O)C(NC(=O)n3c(=O)[nH]c4ccccc43)c3ccccc3)[C@H]2SC1 (stereo partly drawn) [Test Compound B, 7-[α-(2,3-Dihydro-2-oxo-1H-benzimidazol-1-ylcarbonylamino)phenylacetamido]-3-(1-methyltetrazol-5-ylthiomethyl)-3-cephem-4-carboxylic acid] | > 20 | 21.8 (≈ 35.1 µM) | 6 (≈ 9.65 µM) | 16 (≈ 25.7 µM) | 0.9 (≈ 1.45 µM) | 15 (≈ 24.1 µM) | 120 (≈ 193 µM) | 9 (≈ 14.5 µM) | 1 (≈ 1.61 µM) | 7 (≈ 11.3 µM) | 12 (≈ 19.3 µM)
3 | CC(=O)OCC1=C(C(=O)O)N2C(=O)C(NC(=O)C(NC(=O)n3c(=O)n(C)c4ccccc43)c3ccccc3)[C@H]2SC1 (stereo partly drawn) [Test Compound C, 7-[α-(3-Methyl-2,3-dihydro-2-oxo-1H-benzimidazol-1-ylcarbonylamino)phenylacetamido]-3-acetoxymethyl-3-cephem-4-carboxylic acid] | > 20 | 120 (≈ 207 µM) | 6 (≈ 10.4 µM) | 55 (≈ 94.9 µM) | 0.9 (≈ 1.55 µM) | 80 (≈ 138 µM) | > 200 | 72.5 (≈ 125 µM) | 5 (≈ 8.63 µM) | 25 (≈ 43.1 µM) | 8.5 (≈ 14.7 µM)
4 | Cn1nnnc1SCC1=C(C(=O)O)N2C(=O)C(NC(=O)C(NC(=O)n3c(=O)n(C)c4ccccc43)c3ccccc3)[C@H]2SC1 (stereo partly drawn) [Test Compound D, 7-[α-(3-Methyl-2,3-dihydro-2-oxo-1H-benzimidazol-1-ylcarbonylamino)phenylacetamido]-3-(1-methyltetrazol-5-ylthiomethyl)-3-cephem-4-carboxylic acid] | 16 (≈ 25.2 µM) | 30 (≈ 47.2 µM) | 3 (≈ 4.72 µM) | 15 (≈ 23.6 µM) | 0.6 (≈ 0.944 µM) | 18 (≈ 28.3 µM) | > 200 | 14 (≈ 22 µM) | 3 (≈ 4.72 µM) | 19 (≈ 29.9 µM) | 8 (≈ 12.6 µM)
5 | NC(=O)OCC1=C(C(=O)O)N2C(=O)C(NC(=O)C(NC(=O)n3c(=O)[nH]c4ccccc43)c3ccc(O)cc3)[C@H]2SC1 (stereo partly drawn) [Test Compound E, 7-[α-(2,3-dihydro-2-oxo-1H-benzimidazol-1-ylcarbonylamino)-4-hydroxyphenylacetamido]-3-carbamoyloxymethyl-3-cephem-4-carboxylic acid] | 180 (≈ 309 µM) | > 200 | 5 (≈ 8.58 µM) | 120 (≈ 206 µM) | 0.7 (≈ 1.2 µM) | 120 (≈ 206 µM) | > 200 | 160 (≈ 275 µM) | 5 (≈ 8.58 µM) | 100 (≈ 172 µM) | 10 (≈ 17.2 µM)
